Results: patent US9499550B2 (BRISTOL-MYERS SQUIBB COMPANY, priority 2012, dated 2016)
Read-outs that look alike come from different tables or passages of the source.

How the values were obtained:
[1] = system: HCV genotype 1a (H77 strain) replicon in HUH-7 cells; assay: HCV replicon luciferase reporter assay, genotype 1a; format: cell-based; details: Hepatitis C virus, Huh-7, 72 h, HCV genotype 1a replicon luciferase, 3 days incubation, read-out: LE_1a (EC50, range)
Outline: (§1)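 Replicon inhibition for both genotypes was measured as Renilla luciferase signal (EnduRen, 7.5 μM final, 2 h) after 3-day, 37° C exposure of replicon-bearing HUH-7 cells in 4% FCS DMEM, 0.5% DMSO. The 1b construct carries S1179I; the 1a H77 construct carries P1496L and S2204I. Twenty-point, 3-fold dilutions were fitted four-parametrically for EC50, and CC50 was taken from multiplexed Cell Titer-Blue.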

[2] = system: HCV genotype 1b (Con1) replicon in HUH-7 cells; assay: HCV replicon luciferase reporter assay, genotype 1b; format: cell-based; details: Hepatitis C virus, Huh-7, 72 h, HCV genotype 1b replicon luciferase, 3 days incubation, read-out: LE_1b (EC50, range)
Outline: as §1

`COc1cc2ccnc(O[C@@H]3C[C@H]4C(=O)N[C@]5(C(=O)NS(=O)(=O)C6(F)CC6)C[C@H]5/C=C\CC[C@@H](C)C[C@@H](C)[C@H](NC(=O)OCC(C)(C)C)C(=O)N4C3)c2cc1Cl` [Compound 4042, neopentyl (2R,6S,7R,9R,13aS,14aR,16aS,Z)-2-(7-chloro-6-methoxyisoquinolin-1-yloxy)-14a-(1-fluorocyclopropylsulfonylcarbamoyl)-7,9-dimethyl-5,16-dioxo-1,2,3,5,6,7,8,9,10,11,13a,14,14a,15,16,16a-hexadecahydrocyclopropa[e]pyrrolo[1,2-a][1,4]diazacyclopentadecin-6-ylcarbamate] was tested, and the EC50 [1] was less than 5.46 nM and the EC50 [2] was less than 5.46 nM.
For `COc1cc2ccnc(O[C@@H]3C[C@H]4C(=O)N[C@]5(C(=O)NS(=O)(=O)C6(F)CC6)C[C@H]5/C=C\CC[C@@H](C)C[C@@H](C)[C@H](NC(=O)OC(C)(C)C(F)(F)F)C(=O)N4C3)c2cc1Cl` [Compound 4043], the EC50 ([1]; GETYPE1A) was less than 5.46 nM and the EC50 ([2]; GETYPE1B) was less than 5.46 nM.
In the case of `COc1cc2ccnc(O[C@@H]3C[C@H]4C(=O)N[C@]5(C(=O)NS(=O)(=O)C6(F)CC6)C[C@H]5/C=C\CC[C@H](C)C[C@@H](C)[C@H](NC(=O)OC(C)(C)C(F)(F)F)C(=O)N4C3)c2cc1Cl` [Compound 4044], the EC50 ([1]; GETYPE1A) is reported as 4.82 to 103 nM and the EC50 ([2]; GETYPE1B) is reported as less than 5.46 nM.
For `COc1cnc(O[C@@H]2C[C@H]3C(=O)N[C@]4(C(=O)NS(=O)(=O)C5(F)CC5)C[C@H]4/C=C\CC[C@@H](C)C[C@@H](C)[C@H](NC(=O)OC(C)(C)C)C(=O)N3C2)c2cc(F)ccc12` [Compound 4045, tert-butyl (2R,6S,7R,9R,13aS,14aR,16aS,Z)-2-(7-fluoro-4-methoxyisoquinolin-1-yloxy)-14a-(1-fluorocyclopropylsulfonylcarbamoyl)-7,9-dimethyl-5,16-dioxo-1,2,3,5,6,7,8,9,10,11,13a,14,14a,15,16,16a-hexadecahydrocyclopropa[e]pyrrolo[1,2-a][1,4]diazacyclopentadecin-6-ylcarbamate], the EC50 [1] was less than 5.46 nM and the EC50 [2] was less than 5.46 nM.
`COc1cnc(O[C@@H]2C[C@H]3C(=O)N[C@]4(C(=O)NS(=O)(=O)C5(F)CC5)C[C@H]4/C=C\CC[C@H](C)C[C@@H](C)[C@H](NC(=O)OC(C)(C)C)C(=O)N3C2)c2cc(F)ccc12` [Compound 4046, tert-butyl (2R,6S,7R,9S,13aS,14aR,16aS,Z)-2-(7-fluoro-4-methoxyisoquinolin-1-yloxy)-14a-(1-fluorocyclopropylsulfonylcarbamoyl)-7,9-dimethyl-5,16-dioxo-1,2,3,5,6,7,8,9,10,11,13a,14,14a,15,16,16a-hexadecahydrocyclopropa[e]pyrrolo[1,2-a][1,4]diazacyclopentadecin-6-ylcarbamate] was tested, and the EC50 [1] was 4.82 to 103 nM and the EC50 [2] was 4.82 to 103 nM.
`COc1cnc(O[C@@H]2C[C@H]3C(=O)N[C@]4(C(=O)NS(=O)(=O)C5(F)CC5)C[C@H]4/C=C\CC[C@@H](C)C[C@@H](C)[C@H](NC(=O)OCC(C)(C)C)C(=O)N3C2)c2cc(F)ccc12` [Compound 4047, neopentyl (2R,6S,7R,9R,13aS,14aR,16aS,Z)-2-(7-fluoro-4-methoxyisoquinolin-1-yloxy)-14a-(1-fluorocyclopropylsulfonylcarbamoyl)-7,9-dimethyl-5,16-dioxo-1,2,3,5,6,7,8,9,10,11,13a,14,14a,15,16,16a-hexadecahydrocyclopropa[e]pyrrolo[1,2-a][1,4]diazacyclopentadecin-6-ylcarbamate] showed an EC50 [1] of less than 5.46 nM and an EC50 [2] of less than 5.46 nM.
Molecule `COc1cnc(O[C@@H]2C[C@H]3C(=O)N[C@]4(C(=O)NS(=O)(=O)C5(F)CC5)C[C@H]4/C=C\CC[C@@H](C)C[C@@H](C)[C@H](NC(=O)OCC4(C)CC4)C(=O)N3C2)c2cc(F)ccc12` [Compound 4048, (1-methylcyclopropyl)methyl (2R,6S,7R,9R,13aS,14aR,16aS,Z)-2-(7-fluoro-4-methoxyisoquinolin-1-yloxy)-14a-(1-fluorocyclopropylsulfonylcarbamoyl)-7,9-dimethyl-5,16-dioxo-1,2,3,5,6,7,8,9,10,11,13a,14,14a,15,16,16a-hexadecahydrocyclopropa[e]pyrrolo[1,2-a][1,4]diazacyclopentadecin-6-ylcarbamate] has an EC50 [1] of less than 5.46 nM and an EC50 [2] of less than 5.46 nM.
`COc1cc2ccnc(O[C@@H]3C[C@H]4C(=O)N[C@]5(C(=O)NS(=O)(=O)C6(F)CC6)C[C@H]5/C=C\CC[C@@H](C)C[C@@H](C)[C@H](NC(=O)OC(C)(C)C)C(=O)N4C3)c2cc1F` [Compound 4049, tert-butyl (2R,6S,7R,9R,13aS,14aR,16aS,Z)-2-(7-fluoro-6-methoxyisoquinolin-1-yloxy)-14a-(1-fluorocyclopropylsulfonylcarbamoyl)-7,9-dimethyl-5,16-dioxo-1,2,3,5,6,7,8,9,10,11,13a,14,14a,15,16,16a-hexadecahydrocyclopropa[e]pyrrolo[1,2-a][1,4]diazacyclopentadecin-6-ylcarbamate] showed an EC50 [1] of less than 5.46 nM and an EC50 [2] of less than 5.46 nM.
In the case of `COc1cc2ccnc(O[C@@H]3C[C@H]4C(=O)N[C@]5(C(=O)NS(=O)(=O)C6(F)CC6)C[C@H]5/C=C\CC[C@@H](C)C[C@@H](C)[C@H](NC(=O)OCC5(C)CC5)C(=O)N4C3)c2cc1F` [Compound 4050, (1-methylcyclopropyl)methyl (2R,6S,7R,9R,13aS,14aR,16aS,Z)-2-(7-fluoro-6-methoxyisoquinolin-1-yloxy)-14a-(1-fluorocyclopropylsulfonylcarbamoyl)-7,9-dimethyl-5,16-dioxo-1,2,3,5,6,7,8,9,10,11,13a,14,14a,15,16,16a-hexadecahydrocyclopropa[e]pyrrolo[1,2-a][1,4]diazacyclopentadecin-6-ylcarbamate], the EC50 [1] is reported as less than 5.46 nM and the EC50 [2] is reported as less than 5.46 nM.
With `COc1cc2ccnc(O[C@@H]3C[C@H]4C(=O)N[C@]5(C(=O)NS(=O)(=O)C6(F)CC6)C[C@H]5/C=C\CC[C@@H](C)C[C@@H](C)[C@H](NC(=O)OCC(C)(C)C)C(=O)N4C3)c2cc1F` [Compound 4051, neopentyl (2R,6S,7R,9R,13aS,14aR,16aS,Z)-2-(7-fluoro-6-methoxyisoquinolin-1-yloxy)-14a-(1-fluorocyclopropylsulfonylcarbamoyl)-7,9-dimethyl-5,16-dioxo-1,2,3,5,6,7,8,9,10,11,13a,14,14a,15,16,16a-hexadecahydrocyclopropa[e]pyrrolo[1,2-a][1,4]diazacyclopentadecin-6-ylcarbamate] the EC50 [1] was less than 5.46 nM and the EC50 [2] was less than 5.46 nM.
For `COc1cnc(O[C@@H]2C[C@H]3C(=O)N[C@]4(C(=O)NS(=O)(=O)C5(C)CC5)C[C@H]4/C=C\CC[C@@H](C)C[C@@H](C)[C@H](NC(=O)OC(C)(C)C(F)(F)F)C(=O)N3C2)c2ccccc12` [Compound 4052], the EC50 [1] was less than 5.46 nM and the EC50 [2] was less than 5.46 nM.
`CCOc1cnc(O[C@@H]2C[C@H]3C(=O)N[C@]4(C(=O)NS(=O)(=O)C5(F)CC5)C[C@H]4/C=C\CC[C@@H](C)C[C@@H](C)[C@H](NC(=O)OC(C)(C)C)C(=O)N3C2)c2ccccc12` [Compound 4053, tert-butyl (2R,6S,7R,9R,13aS,14aR,16aS,Z)-2-(4-ethoxyisoquinolin-1-yloxy)-14a-(1-fluorocyclopropylsulfonylcarbamoyl)-7,9-dimethyl-5,16-dioxo-1,2,3,5,6,7,8,9,10,11,13a,14,14a,15,16,16a-hexadecahydrocyclopropa[e]pyrrolo[1,2-a][1,4]diazacyclopentadecin-6-ylcarbamate] was tested, and the EC50 [1] was less than 5.46 nM and the EC50 [2] was less than 5.46 nM.
`COc1ccc2c(O[C@@H]3C[C@H]4C(=O)N[C@]5(C(=O)NS(=O)(=O)C6CC6)C[C@H]5/C=C\CC[C@@H](C)C[C@@H](C)[C@H](NC(=O)OC5(C)CC5)C(=O)N4C3)nccc2c1` [Compound 4054] gave an EC50 [1] of less than 5.46 nM and an EC50 [2] of less than 5.46 nM.
